Assay results from patent publication US20120107284A1, “Stem cells for transplantation and methods for production thereof” (priority 2006, published 2012).

Columns and labels:
[1] = test system: firefly luciferase activity, controlled by cTA2^D-5; experiment: Dual Tet-system reporter assay, firefly luciferase, HeLa HLRF33/1141 cotransfected with cTA2D-5 and rtTA2s-M24C5G; type: cell-based; settings: HeLa cells (HLRF33/1141), 24 h incubation, 1 μg/ml
Method: (§1) B: Regulatory properties. HeLa cells (HLRF33/1141) were cotransfected with two plasmids encoding the transregulators cTA2^D-5 and rtTA2^s-M24C5G. Reporter gene expression was scored after 24 h incubation with 1 μg/ml of either cmt3 or dox or both. Luciferase activities were determined from cell extracts and represent the means of triplicate samples with standard deviations given in arbitrary light units (ALU; defined as relative light units per mg of total cell protein corrected for transfection efficiency). Expression of Renilla luciferase controlled by rtTA2^s-M24C5G is increased about 1000-fold and only in the presence of dox (columns 3 and 4). Addition of cmt3 leads to a ˜100-fold decrease in firefly luciferase activity, controlled by cTA2^D-5 (columns 2 and 4), while expression of firefly luciferase is only slightly, less than 2-fold, reduced in the presence of dox. […] The regulatory system is thus functional and can be used for target gene expression in NCSCs.
(§2) Recently two transcription factors have been constructed—cTA2^D-5 and rtTA2^s-M24C5G—with exclusive specificities for DNA binding (wt TRE/4C5G TRE), effector recognition (cmt3/dox) and homodimer formation (class D/class B) (Dr. Christian Berens, Erlangen University). All these components were tested for the first time in eukaryotic cells to determine their regulatory properties (C. Berens, unpublished). […]

[2] = test system: Renilla luciferase controlled by rtTA2^s-M24C5G; experiment: Dual Tet-system reporter assay, Renilla luciferase, HeLa HLRF33/1141 cotransfected with cTA2D-5 and rtTA2s-M24C5G; type: cell-based; settings: HeLa cells (HLRF33/1141), 24 h incubation, 1 μg/ml
Method: as §1, §2

[3] = test system: dorsal root ganglion neurons; experiment: Functionality of the Tet-system in vivo: DOX to pregnant Sox10-rtTA mice mated with TRE-Aml1/Runx1 males; settings: [Sox10-rtTA+TRE-Aml1/Runx1] pups; DOX in drinking water during pregnancy days 7-8 and 11.5-14
Text: FIG. 8. Abnormalities in offspring of pregnant Sox10-rtTA mice which had been mated with TRE-Aml1/Runx1 males and treated with DOX during pregnancy days 7-8 and 11.5-14. Pups with the genotype [Sox10-rtTA+TRE-Aml1/Runx1] are smaller than normal and display pigment defects (upper left), megacolon (lower left), and a reduced size of dorsal root ganglia (upper and lower right).
FIG. 9. The number of dorsal root ganglion neurons is reduced compared to control (1) by about 50% in [Sox10-rtTA+TRE-Aml1/Runx1] pups from Sox10-rtTA mice, which hade been mated with TRE-Aml1/Runx1 males, and treated with DOX during pregnancy days 7-8 and 11.5-14 (2).
The functionality of the Tet-system in vivo was first confirmed. Sox10-rtTA female mice were bred with TRE-Aml1A/Runx1 males and DOX was given in the drinking water to the pregnant females pregnancy days 7 to 8 and 11.5 to 14, which correspond to the period NCSC migration. […] The number of DRG neurons was reduced by about 50% (FIG. 9).

SMILES | Decrease in firefly luciferase activity controlled by cTA2^D-5 [1] | Increase in expression of Renilla luciferase controlled by rtTA2^s-M24C5G [2] | Reduction of the number of dorsal root ganglion neurons compared to control [3]
C[C@H]1c2cccc(O)c2C(=O)C2=C(O)[C@]3(O)C(=O)C(C(N)=O)=C(O)[C@@H](N(C)C)[C@@H]3[C@@H](O)[C@@H]21 [DOX, doxycycline] | less than 2 fold | about 1000 fold | about 50%
NC(=O)C1=C(O)C[C@@H]2C[C@@H]3Cc4cccc(O)c4C(=O)C3=C(O)[C@]2(O)C1=O [cmt3] | ~100 fold | – | –
